Broadly, the IC50 is the midpoint of a concentration-inhibition curve. For orientation: % Inhibition means the percentage by which the read-out fell short of the control. One may read the inhibition as the drop in the measured response relative to a control, in per cent.

Read-outs that look alike come from different tables or passages of the source. Square brackets hold non-standard residues; d marks the D form. Peptide text beside a SMILES is read from it. * marks the point of attachment. Pip = O=C(O)[C@@H]1CCCCN1; Cbz = O=C(OCc1ccccc1)*

The values below come from patent US5846755A (priority 1995, dated 1998).

Data set [1] deals with enzyme purified from the venom of Crotalus Adamanteus (hemorrhagin) (Crotalus adamanteus, UniProt P34179). Type of data set: biochemical.
Sequence of enzyme purified from the venom of Crotalus Adamanteus (hemorrhagin) (P34179 whole entry, looked up): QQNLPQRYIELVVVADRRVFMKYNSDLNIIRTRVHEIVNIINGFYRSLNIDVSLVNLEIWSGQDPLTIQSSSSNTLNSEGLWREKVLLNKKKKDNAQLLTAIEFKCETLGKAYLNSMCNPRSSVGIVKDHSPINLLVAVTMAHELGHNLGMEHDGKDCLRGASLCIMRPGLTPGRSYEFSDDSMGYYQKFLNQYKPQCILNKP
The target of data set [2] is T1, recombinant human gelatinase A (Homo sapiens, UniProt P08253).
T1 construct: purchased Strangeways Laboratories, Cambridge, UK
T1 sequence (P08253 110-660): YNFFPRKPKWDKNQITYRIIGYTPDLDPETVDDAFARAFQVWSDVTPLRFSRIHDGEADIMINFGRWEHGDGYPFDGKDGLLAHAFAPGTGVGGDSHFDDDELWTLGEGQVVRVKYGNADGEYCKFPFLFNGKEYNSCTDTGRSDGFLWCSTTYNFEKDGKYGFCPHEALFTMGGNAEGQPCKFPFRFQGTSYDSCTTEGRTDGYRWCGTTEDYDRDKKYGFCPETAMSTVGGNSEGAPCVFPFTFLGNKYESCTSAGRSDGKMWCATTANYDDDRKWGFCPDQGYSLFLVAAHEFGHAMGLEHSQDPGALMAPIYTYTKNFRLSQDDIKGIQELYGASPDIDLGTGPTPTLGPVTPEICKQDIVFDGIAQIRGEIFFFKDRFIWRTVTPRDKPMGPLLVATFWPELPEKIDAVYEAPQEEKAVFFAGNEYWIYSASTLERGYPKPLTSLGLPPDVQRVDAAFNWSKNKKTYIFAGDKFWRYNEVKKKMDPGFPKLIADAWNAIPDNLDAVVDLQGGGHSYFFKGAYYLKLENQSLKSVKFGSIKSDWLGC
The data set is described as follows: In vitro effects on recombinant human gelatinase A. Type of data set: biochemical. The source says:
Assays on human gelatinase A, an enzyme released in high concentration by any kind of tumor cells during the process of metastatization, and recognized also as a product of stimulated cells in many pathological processes, have been performed using the protein obtained by recombinant biotechnology (Strangeways Laboratories, Cambridge, UK). The enzymatic activity has been followed over time, measuring the amount of fluorescent substrate cleaved by the enzyme, in the presence or absence of synthetic compounds (Perkin Elmer L50 B fluorimeter).

In data set [3] the target is neutrophil collagenase (recombinant human) (Homo sapiens, UniProt P22894). The data set is described as follows: In vitro assays on recombinant human collagenase. The data set is classed as biochemical. As to the method: Using the same enzymatic determination already described (fluorimetric detection of cleavage of a substrate peptide containing a fluorescent moiety), some of the compounds were tested on neutrophil collagenase, an enzyme described as participating in any kind of inflammatory reaction in mammalian bodies. In this case, the purified enxzyme was also obtained by recombinant means.
Sequence of neutrophil collagenase (recombinant human) (P22894 101-467): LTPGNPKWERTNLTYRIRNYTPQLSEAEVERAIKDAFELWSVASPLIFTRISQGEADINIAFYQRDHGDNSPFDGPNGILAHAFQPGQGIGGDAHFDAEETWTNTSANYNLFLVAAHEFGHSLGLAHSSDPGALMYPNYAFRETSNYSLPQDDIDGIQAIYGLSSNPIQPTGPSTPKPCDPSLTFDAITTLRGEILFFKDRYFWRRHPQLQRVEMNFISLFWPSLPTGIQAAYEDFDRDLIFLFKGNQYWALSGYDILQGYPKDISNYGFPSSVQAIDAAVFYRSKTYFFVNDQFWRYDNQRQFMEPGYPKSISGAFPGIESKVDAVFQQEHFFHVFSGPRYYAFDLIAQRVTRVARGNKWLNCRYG

Data set [4] in a line: Resistance to proteolytic activity in stomach juices (rat stomach homogenate, HPLC). The settings on record: 37° C.
Experimental: To check if the compounds of the present invention are resistant to proteolytic activity in stomach juices and, therefore, could be administered orally, the stomachs of fasting rats were homogenized in physiological solutions (1:1). 300 microliters of solutions of the compounds (1 mg/ml of saline) were incubated with 0.5 ml of stomach homogenates (37° C.).
For data set [5], the target named is T2, recombinant human gelatinase B (Homo sapiens, UniProt P14780).
T2 construct: purchased Stangeways Laboratories, Cambridge, UK (so in the source)
T2 sequence (P14780 94-707): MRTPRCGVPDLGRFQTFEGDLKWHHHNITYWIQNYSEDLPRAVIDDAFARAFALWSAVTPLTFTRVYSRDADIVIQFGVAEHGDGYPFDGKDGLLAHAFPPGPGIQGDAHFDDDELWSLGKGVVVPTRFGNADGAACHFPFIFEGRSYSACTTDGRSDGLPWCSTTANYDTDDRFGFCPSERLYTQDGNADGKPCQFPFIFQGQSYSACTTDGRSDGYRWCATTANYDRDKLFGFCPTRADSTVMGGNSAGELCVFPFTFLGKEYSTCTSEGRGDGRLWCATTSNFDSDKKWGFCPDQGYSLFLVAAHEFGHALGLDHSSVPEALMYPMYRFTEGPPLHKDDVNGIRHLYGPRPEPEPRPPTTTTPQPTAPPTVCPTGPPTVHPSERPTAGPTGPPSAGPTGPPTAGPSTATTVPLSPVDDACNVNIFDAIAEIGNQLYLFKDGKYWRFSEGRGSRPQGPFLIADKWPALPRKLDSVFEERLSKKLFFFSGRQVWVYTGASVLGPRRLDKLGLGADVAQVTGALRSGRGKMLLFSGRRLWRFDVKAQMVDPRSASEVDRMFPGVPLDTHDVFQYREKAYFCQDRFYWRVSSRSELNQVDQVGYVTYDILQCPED
Briefly: In vitro effects on recombinant human gelatinase B. The data set is classed as biochemical. As to the method: Assays on human gelatinase B, another enzyme released by tumor cells, were performed using also, in this case, the protein obtained by recombinant biotechnology Stangeways Laboratories, Cambridge, UK). As usual, the enzymatic activity was followed over time, measuring the amount of fluorescent substrate cleaved by the enzyme, in the presence or absence of synthetic compounds (Perkin Elmer L50 B fluorimeter).

Consider “2-FUR--(L)--Phe--(S)--Cyt--OH [Compound 11]”, for which the IC50 in data set [1] (read-out: IC50) worked out at 53 nM. The “% Inhibition” value in data set [2] (Concentration 8.7 × 10^-7 M) was determined as 40%. The “% Inhibition” value in data set [3] (Concentration 2.2 × 10^-5 M) is 27%. Moreover, in data set [4], the “Residue after 60 Minutes” value is given as 100% and the “Residue after 120 Minutes” value is given as above 95%.

On to `COc1ccc2c(c1)C(CC(=O)NC(CC(C)C)C(=O)N1Cc3[nH]c4ccccc4c3CC1C(=O)O)CC2=O` (mixture of isomers) [Compound 23, 5-MIA--(L)--Leu--(S)--Cyt--OH], for which the IC50 in data set [1] (read-out: IC50) turned out to be 75 nM. Moreover, the “% Inhibition” value in data set [2] (Concentration 8.0 × 10^-7 M) is 40%.

`COc1ccc2[nH]c(C(=O)N[C@@H](CC3CCCCC3)C(=O)N3Cc4[nH]c5ccccc5c4C[C@H]3C(=O)O)cc2c1` [Compound 1, 5--MIC--Cha--(S)--Cyt--OH] displayed an IC50 in data set [1] of 29 nM. Besides, in data set [2] (Concentration 7.0 × 10^-7 M), the inhibition at 0.7 µM came out at 25%.

With `CC(C)C[C@H](NC(=O)CSc1ncccn1)C(=O)N1Cc2[nH]c3ccccc3c2C[C@H]1C(=O)O` [Compound 2, 2-PMTA--(L)--Leu--(S)--Cyt--OH], the IC50 in data set [1] (read-out: IC50) was determined as 230 nM.

Turning to `CC(C)C[C@H](NC(=O)c1nccnc1N)C(=O)N1Cc2[nH]c3ccccc3c2C[C@H]1C(=O)O` [Compound 4, 3-APZC--(L)--Leu--(S)--Cyt--OH], the IC50 in data set [1] (read-out: IC50) is 57 nM.

Turning to `COc1cccc2cc(C(=O)N[C@@H](CC(C)C)C(=O)N3Cc4[nH]c5ccccc5c4C[C@H]3C(=O)O)oc12` [Compound 5, 7-MBF--(L)--Leu--(S)--Cyt--OH], the IC50 in data set [1] (read-out: IC50) amounted to 94 nM.

As for `COc1cc(C(=O)N[C@@H](CC(C)C)C(=O)N2Cc3[nH]c4ccccc4c3C[C@H]2C(=O)O)nc2ccccc12` [Compound 6, 4-MQC--(L)--Leu--(S)--Cyt--OH], the IC50 in data set [1] (read-out: IC50) is 50 nM.

Consider `CC(C)C[C@H](NC(=O)c1cc2cc(O)ccc2[nH]1)C(=O)N1Cc2[nH]c3ccccc3c2C[C@H]1C(=O)O` [Compound 7, 5-HIC--(L)--Leu--(S)--Cyt--OH], for which the IC50 in data set [1] (read-out: IC50) stood at 23 nM.

In the case of `COc1ccc2[nH]c(C(=O)N[C@@H](Cc3ccccc3)C(=O)N3Cc4[nH]c5ccccc5c4C[C@H]3C(=O)O)cc2c1` [Compound 8, 5-MIC--(L)--Phe--(S)--Cyt--OH], the IC50 in data set [1] (read-out: IC50) is 100 nM.

Consider `CC(C)C[C@H](NC(=O)[C@@H](N)CCO)C(=O)N1Cc2[nH]c3ccccc3c2C[C@H]1C(=O)O` [Compound 12, (L)--HomoSer--(L)--Leu--(S)--Cyt--OH], for which the IC50 in data set [1] (read-out: IC50) was found to be 5000 nM.

Regarding `CC(C)C[C@H](NC(=O)c1ccoc1)C(=O)N1Cc2[nH]c3ccccc3c2C[C@H]1C(=O)O` [Compound 13, 3-Furoyl--(L)--Leu--(S)--Cyt--OH], the IC50 in data set [1] (read-out: IC50) was 400 nM. The “% Inhibition” value in data set [2] (Concentration 9.4 × 10^-7 M) is 41%.

As to `COc1ccc2[nH]c(C(=O)N[C@@H](Cc3c[nH]c4ccccc34)C(=O)N3Cc4[nH]c5ccccc5c4C[C@H]3C(=O)O)cc2c1` [Compound 14, 5-MIC--(L)--Trp--(S)--Cyt--OH], the IC50 in data set [1] (read-out: IC50) was determined as 47 nM. In addition, the “% Inhibition” value in data set [2] (Concentration 6.0 × 10^-7 M) stood at 37%.

Regarding `CC(C)C[C@H](NC(=O)c1ccc2ccccc2n1)C(=O)N1Cc2[nH]c3ccccc3c2C[C@H]1C(=O)O` [Compound 16, 2-QIC--(L)--Leu--(S)--Cyt--OH], the IC50 in data set [1] (read-out: IC50) was 28 nM. The “% Inhibition” value was found to be 23% in data set [2] (Concentration 8.0 × 10^-7 M) and 51% in data set [5] (Concentration 1.0 × 10^-5 M).

In data set [1], `COc1ccc2[nH]c(C(=O)N[C@@H](CC(C)C)C(=O)N3Cc4[nH]c5ccccc5c4C[C@H]3C(=O)O)cc2c1` [Compound 17, 5-MIC--(L)--Leu--(S)--Cyt--OH] gave an IC50 of 23 nM.

With `COc1ccccc1CC(=O)N[C@@H](CC(C)C)C(=O)N1Cc2[nH]c3ccccc3c2C[C@H]1C(=O)O` [Compound 19, 2-MPA--(L)--Leu--(S)--Cyt--OH], in data set [1] (read-out: IC50), the IC50 is 260 nM.

`CCOc1ccccc1C(=O)N[C@@H](CC(C)C)C(=O)N1Cc2[nH]c3ccccc3c2C[C@H]1C(=O)O` [Compound 20, 2-EBZ--(L)--Leu--(S)--Cyt--OH]: the IC50 in data set [1] (read-out: IC50) is 130 nM.

For the compound `Cc1cnc(C(=O)N[C@@H](CC(C)C)C(=O)N2Cc3[nH]c4ccccc4c3C[C@H]2C(=O)O)cn1` [Compound 21, 5-MPZ--(L)--Leu--(S)--Cyt--OH], the IC50 in data set [1] (read-out: IC50) was 44 nM. Further, the “% Inhibition” value in data set [5] (Concentration 5.5 × 10^-6 M) came to 43%.

Turning to `CC(C)C[C@H](NC(=O)c1ccc([N+](=O)[O-])cc1)C(=O)N1Cc2[nH]c3ccccc3c2C[C@H]1C(=O)O` [Compound 26, 4-NBZ--(L)--Leu--(S)--Cyt--OH], in data set [1] (read-out: IC50), the IC50 was found to be 95 nM. In data set [4], the “Residue after 60 Minutes” value worked out at 100% and the “Residue after 120 Minutes” value is listed as above 95%.

Take `CC(C)C[C@H](NC(=O)c1ccc(Cl)cc1)C(=O)N1Cc2[nH]c3ccccc3c2C[C@H]1C(=O)O` [Compound 27, 4-CBZ--(L)--Leu--(S)--Cyt--OH]: the IC50 in data set [1] (read-out: IC50) worked out at 100 nM. Further, in data set [3] (Concentration 2.1 × 10^-5 M), the “% Inhibition” value is recorded as 28%.

Turning to `CC(C)C[C@H](NC(=O)c1cccnc1)C(=O)N1Cc2[nH]c3ccccc3c2C[C@H]1C(=O)O` [Compound 28, 3-NIC--(L)--Leu--(S)--Cyt--OH], in data set [1] (read-out: IC50), the IC50 was found to be 100 nM.

In the case of `CC(C)C[C@H](NC(=O)c1ccncc1)C(=O)N1Cc2[nH]c3ccccc3c2C[C@H]1C(=O)O` [Compound 29, 4-NIC--(L)--Leu--(S)--Cyt--OH], the IC50 in data set [1] (read-out: IC50) was found to be 400 nM.

For `COc1ccc(C(=O)N[C@@H](CC(C)C)C(=O)N2Cc3[nH]c4ccccc4c3C[C@H]2C(=O)O)cc1OC` [Compound 30, 3,4-DMB--(L)--Leu--(S)--Cyt--OH], in data set [1] (read-out: IC50), the IC50 came to 380 nM. Besides, in data set [4], the “Residue after 60 Minutes” value came to 100% and the “Residue after 120 Minutes” value is recorded as above 95%.

As to `O=C(N[C@@H](Cc1c[nH]c2ccccc12)C(=O)N1Cc2[nH]c3ccccc3c2C[C@H]1C(=O)O)c1ccco1` [Compound 34, 2-FUR--(L)--Trp--(S)--Cyt--OH], the IC50 in data set [1] (read-out: IC50) came out at 400 nM.

On to `NC(=O)C[C@H](NC(=O)c1ccco1)C(=O)N1Cc2[nH]c3ccccc3c2C[C@H]1C(=O)O` [Compound 35, 2-FUR--(L)--Asn--(S)--Cyt--OH], for which, in data set [1] (read-out: IC50), the IC50 is 8000 nM.

With `O=C(NCCCC[C@H](NC(=O)c1ccco1)C(=O)N1Cc2[nH]c3ccccc3c2C[C@H]1C(=O)O)OCC1c2ccccc2-c2ccccc21` [Compound 36, 2-FUR--(L)--Lys(Fmoc)--(S)--Cyt--OH], the IC50 in data set [1] (read-out: IC50) came to 100 nM.

Consider `CC(C)C[C@H](NC(=O)c1cccc2ccccc12)C(=O)N1Cc2[nH]c3ccccc3c2C[C@H]1C(=O)O` [Compound 37, 1-NAF--(L)--Leu--(S)--Cyt--OH], for which the IC50 in data set [1] (read-out: IC50) came to 210 nM.

For the compound `CC(C)C[C@H](NC(=O)c1ccc[nH]1)C(=O)N[C@@H](Cc1c[nH]c2ccccc12)C(=O)O` [Pirr--Leu--Trp], the “% Inhibition” value was 33% in data set [2] (Concentration 9.0 × 10^-6 M) and 15% in data set [3] (Concentration 1.1 × 10^-5 M).

Take `CC(C)C[C@H](NC(=O)c1cccs1)C(=O)N[C@@H](Cc1c[nH]c2ccccc12)C(=O)O` [Tiof--Leu--Trp]: the “% Inhibition” value in data set [2] (Concentration 8.0 × 10^-6 M) is 60%.

For the compound `CC(C)C[C@H](NC(=O)[C@@H]1CCCCN1C(=O)OCc1ccccc1)C(=O)N[C@@H](Cc1c[nH]c2ccccc12)C(=O)O` [Z--Pip--Leu--Trp] (Cbz-[Pip]-Leu-Trp-OH), the “% Inhibition” value in data set [2] (Concentration 9.0 × 10^-6 M) is given as 63%.

Consider “BZS--(L)--Phe--(S)--Cyt--OH [Compound 32]”, for which the IC50 in data set [1] (read-out: IC50) came to 2000 nM. Further, in data set [5] (Concentration 1.0 × 10^-5 M), the “% Inhibition” value was 42%.

Turning to MePro--Ala--Cyt, in data set [2] (Concentration 9.0 × 10^-6 M), the “% Inhibition” value was found to be 39%.
